In patent US20260137081A1, “SUBSTITUTED FURANONES AND USE THEREOF FOR AGRICULTURAL APPLICATIONS” (SOUND AGRICULTURE COMPANY, priority 2021, published 2026):

Assays:
Assay type in all cases: in vivo
corn plants [1] = assay: Greenhouse foliar application, gas exchange with LI-COR 6800 (carbon assimilation, transpiration, stomatal conductance); details: 0.8 fl. oz rate; 2 and 24 hour time points; compared to the mock
Experimental: Greenhouse application of Compound 1: Corn plants were grown in a greenhouse for 9 weeks (V5) prior to treatment. Eight plants were treated with a mock solution (formulation blank), low rate (0.8 fl. oz) or medium rate (1.7 fl. oz). The low rate and medium rate refer to the volume of the Compound 1 containing solution that is applied to 1 acre of corn plants, and roughly equates to 5 grams of Compound 1 per acre for low rate and about 10 grams of Compound 1 per acre for medium rate. The foliar blends were prepared by mixing the formula concentrations into water followed by vigorous mixing. To mimic a foliar application in a corn field (using a spray boom), a uniform coating of the entire plant was carried out (FIG. 2) using a hand-held spray bottle. Following application, the plants were separated to avoid cross contamination (aerosol drift) and allowed to dry. Measurement of carbon assimilation: Assessment of the effects of Compound 1 on photosynthesis in corn plants, tobacco plants, and soybean plants was performed using a LI-COR 6800 fluorimeter, which measured net carbon assimilation (Anet), transpiration (E) and stomatal conductance (gsw). The youngest fully expanded leaf with a fully formed ligule was used from each plant for sampling. A single sample (biological representative) consisted of averaging the readings from three technical representatives adjacent to each other on each sampled leaf. Each treatment consisted of eight biological representatives (N=8). Photobiology measurements were taken at 2 and 24 hour time points, post application.

corn plants [2] = assay: Chlorophyll fluorescence with LI-COR 6800 after foliar application; details: for minimal fluorescence Fo / maximum fluorescence (Fm): dark-adapted; for light-adapted quantum efficiency of PSII (Fv′/Fm′): in comparison to the mock
Experimental: Greenhouse application of Compound 1: Corn plants were grown in a greenhouse for 9 weeks (V5) prior to treatment. […] The foliar blends were prepared by mixing the formula concentrations into water followed by vigorous mixing. To mimic a foliar application in a corn field (using a spray boom), a uniform coating of the entire plant was carried out (FIG. 2) using a hand-held spray bottle. Following application, the plants were separated to avoid cross contamination (aerosol drift) and allowed to dry. Measurement of chlorophyll fluorescence: Chlorophyll fluorescence measurements were determined 4 hrs and 24 hrs after treatment using a LI-COR 6800 fluorimeter (LI-COR Biosciences; Lincoln, Nebraska). Corn plants were dark-adapted 60-90 min prior to measurement and the youngest fully expanded leaf with a fully formed ligule was used for the measurement. Minimal fluorescence levels in the dark (Fo) and light (Fo′) were recorded by applying a measuring light of 12 μmol photons m^−2 s^−1. Maximum fluorescence levels in the dark (Fm) and light (Fm′) were recorded by applying a saturating pulse of light at 10,000 μmol photons m^−2 s^−1. Maximum quantum efficiency of PSII in the dark (Fv/Fm) and light (Fv′/Fm′) were calculated as (Fm−Fo/Fm) using their respective dark or light-adapted values. NPQ induction was measured after a 5 minute exposure to an actinic light source at 1,000 μmol photons m^−2 s^−1 and calculated as (Fm−Fm′/Fm′).

[3] = tested on: Corn (Syngenta Agrisure Artesian); assay: Cool Grow Procedure Two (foliar spray of DC formulation vs formulation blank)
Experimental: Corn (Syngenta Agrisure Artesian, Basel, Switzerland) seeds (n=2) were planted in 24 four inch pots containing Sunshine soil #1 (Sun Gro, Agawam, MA) mixed with ⅛ tbsp of 14-14-14 osmocote N—P—K (Bloomington Brands LLC, Bloomington, IN) slow-release fertilizer and Micromax (ICL Specialty Fertilizers) (lg/L). Pots were placed on plant holder trays (11×22 in) with three pots per tray and were set-up in a 4×4 ft Cool Grow tent (capacity: 35 one liter pots) with temperature set at 24° C. and light at 345 μmoL for 12 hours day and night. Upon emergence, one seedling was culled leaving only one plant per pot. Plants were fertilized weekly thereafter starting one week after germination with 20-20-20 NPK (1 tsp/gallon) (Bloomington Brands LLC, Bloomington, IN) applied at ˜800-1000 mL per tray.
At V2-3 stage (14 days after seeding), each plant was sprayed with 7.5 mL of the following formulations: formulation blank DC (12 plants total; Agnique® AMD 3L (N,N-dimethyl lactamide)); Compound 1 DC formulation (9.86 μL of DC formulation from Example 5 dissolved in 50 mL of water). After 90 minutes following spray treatment, photosynthetic measurements were made using Licor. Digital biomass and NDVI measurements were made 21 days after seeding by a PlantEye F600Multispectral 3D scanner (Phenospex, Netherlands) and plants were harvested at 27 days after seeding.

corn = assay: Corn field trials, grain yield; details: field trials in Illinois and Iowa; applied once in late June; vs untreated control
Experimental: The total amount of Compound 1 applied to each plot ranged from about 5 g/acre to about 20 g/acre.
Corn field trials were performed in Illinois and Iowa. In each trial, individual plots measured 10 feet by 30 feet and each treatment (application of Compound 1 or untreated control) was replicated across 4 plots in a randomized complete block design. Agronomic practices were maintained under standard commercial conditions and products used for weed, insect, and disease control. The Walnut, Illinois trial site was planted in mid-May and harvested in early October. The Richland, Iowa site was planted in late April and harvested in late September. Compound 1 was applied to both sites once in late June. Grain weight and grain moisture were measured for each plot at harvest, data is reported as bushels per acre normalized to 13% moisture content.

With COC1=C(OC)[C@@H]([C@@H]2COC(C)(C)O2)OC1=O [Compound 1, (5R)-5-(2,2-dimethyl-1,3-dioxolan-4-yl)-3,4-dimethoxyfuran-2(5H)-one] the “CO2 assimilation (Anet)” value (corn plants [1]) was “elevated”, the “stomatal conductance (gsw)” value (corn plants [1]) was “elevated” and the “transpiration (E)” value (corn plants [1]) was “elevated”. The “light-adapted Fm′” value (corn plants [2]; 24 hrs post application) was “not higher”, the “dark-adapted quantum efficiency of PSII (Fv/Fm)” value (corn plants [2]; both rates, after 24 hrs) was “higher” and the “minimal fluorescence Fo” value (corn plants [2]; high rate, 4 hrs post foliar application, vs low rate and mock control) was “lower”. The “maximum fluorescence (Fm)” value (corn plants [2]; high rate, both timepoints (4 and 24 hrs)) was “higher”, the “minimal fluorescence Fo” value (corn plants [2]; low and high rates, after 24 hrs, vs mock control) was “lower compared to the mock control” and the “maximum fluorescence (Fm)” value (corn plants [2]; low rate, after 24 hrs) was “higher”. The “light-adapted quantum efficiency of PSII (Fv′/Fm′)” value (corn plants [2]; high rate, 4 hrs post application) was “higher”, the “dark-adapted quantum efficiency of PSII (Fv/Fm)” value (corn plants [2]; high rate, after 4 hrs) was “higher” and the “light-adapted quantum efficiency of PSII (Fv′/Fm′)” value (corn plants [2]; low rate, 24 hrs post application) was “higher”. For the same compound, the “light-adapted Fm′” value (corn plants [2]; the two rates, 4 hrs post application) was “similarly higher”, the NDVI ([3]; 21 days after seeding, formulation blank DC 0.558, p<0.05) was 0.569 and the “mean shoot dry weight” value ([3]; harvest 27 days after seeding, formulation blank DC 3.16, p<0.1) was 3.62 g. The Corn yield (corn) was “Increases”.
